Source: patent publication US7151105B2, “Inhibitors of Hepatitis C virus RNA-dependent RNA polymerase, and compositions and treatments using the same” (Agouron Pharmaceuticals, Inc., priority 2004, dated 2006)

Biological target: T1, Recombinant HCV polymerase (Hepatitis C virus genotype 1b, UniProt P26663)
T1 construct: Recombinant HCV polymerase was tested for its ability to perform primer/template-directed transcription
Experiment: biochemical
Conditions: inhibition of polymerase-directed transcription; 30 min at 30° C; 30 nM enzyme; cpm data in triplicate
In short: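 Primer/template-directed RNA synthesis by 2.5 pmol HCV polymerase on poly(rC)300/biotin-dG12 with 1 μM GTP plus α-32P-GTP, in pH 7.2 Tris buffer with 10 mM MgCl2, for 30 min at 30 °C. Products were filter-captured and counted, with 1% DMSO final. IC50 was fitted from triplicate cpm; percent inhibition was reported where IC50 was impractical.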

T1 sequence (P26663 2420-3010): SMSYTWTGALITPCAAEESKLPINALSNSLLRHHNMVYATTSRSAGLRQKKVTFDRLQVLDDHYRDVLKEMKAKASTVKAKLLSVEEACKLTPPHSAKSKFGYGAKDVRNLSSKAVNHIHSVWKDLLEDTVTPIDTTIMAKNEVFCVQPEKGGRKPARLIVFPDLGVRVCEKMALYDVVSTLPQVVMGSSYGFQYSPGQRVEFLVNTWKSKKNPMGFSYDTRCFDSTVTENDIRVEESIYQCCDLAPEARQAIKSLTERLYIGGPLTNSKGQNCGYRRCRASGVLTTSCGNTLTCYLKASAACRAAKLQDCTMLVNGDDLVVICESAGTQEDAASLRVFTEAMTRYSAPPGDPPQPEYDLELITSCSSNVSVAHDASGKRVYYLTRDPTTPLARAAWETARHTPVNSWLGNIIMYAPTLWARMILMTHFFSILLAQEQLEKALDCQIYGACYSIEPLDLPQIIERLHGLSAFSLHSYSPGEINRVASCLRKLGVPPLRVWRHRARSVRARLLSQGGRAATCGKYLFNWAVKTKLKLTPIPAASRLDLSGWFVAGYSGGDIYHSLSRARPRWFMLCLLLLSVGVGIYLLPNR

| Compound | IC50 [nM] |
| --- | --- |
| Cc1nc(CC2=C(O)CC(CCc3ccc(C(C)(C)C#N)c(Cl)c3)(C3CCCC3)OC2=O)n(C)n1 (centres unmarked) [B(22), 2-[2-Chloro-4-(2-{2-cyclopentyl-5-[(1,3-dimethyl-1H-1,2,4-triazol-5-yl)methyl]-4-hydroxy-6-oxo-3,6-dihydro-2H-pyran-2-yl}ethyl)phenyl]-2-methylpropanenitrile] | 42 |
| CCn1cc(CC2=C(O)CC(CCc3ccc(C(C)(C)C#N)c(Cl)c3)(C3CCCC3)OC2=O)cn1 (centres unmarked) [B(23), 2-[2-Chloro-4-(2-{2-cyclopentyl-5-[(1-ethyl-1H-pyrazol-4-yl)methyl]-4-hydroxy-6-oxo-3,6-dihydro-2H-pyran-2-yl}ethyl)phenyl]-2-methylpropanenitrile] | 140 |
| Cn1cc(CC2=C(O)CC(CCc3ccc(C(C)(C)C#N)c(Cl)c3)(C3CCCC3)OC2=O)cn1 (centres unmarked) [B(24), 2-[2-Chloro-4-(2-{2-cyclopentyl-4-hydroxy-5-[(1-methyl-1H-pyrazol-4-yl)methyl]-6-oxo-3,6-dihydro-2H-pyran-2-yl}ethyl)phenyl]-2-methylpropanenitrile] | 100 |
| Cc1nn(C)c(C)c1CC1=C(O)CC(CCc2ccc(C(C)(C)C#N)c(Cl)c2)(C2CCCC2)OC1=O (centres unmarked) [B(25), 2-[2-Chloro-4-(2-{2-cyclopentyl-4-hydroxy-6-oxo-5-[(1,3,5-trimethyl-1H-pyrazol-4-yl)methyl]-3,6-dihydro-2H-pyran-2-yl}ethyl)phenyl]-2-methylpropanenitrile] | 33 |
| Cc1cc(C)n2nc(N(C)C3C(=O)CC(CCc4ccc(C(C)(C)C#N)c(Cl)c4)(C4CCCC4)OC3=O)nc2n1 (centres unmarked) [B(26), 2-[2-Chloro-4-(2-{2-cyclopentyl-5-[(5,7-dimethyl[1,2,4]triazolo[1,5-a]pyrimidin-2-yl)(methyl)amino]-4,6-dioxotetrahydro-2H-pyran-2-yl}ethyl)phenyl]-2-methylpropanenitrile] | 18000 |
| Cc1cc(C)n2nc(OC3C(=O)CC(CCc4ccc(C(C)(C)C#N)c(Cl)c4)(C4CCCC4)OC3=O)nc2n1 (centres unmarked) [B(27), 2-[2-Chloro-4-(2-{2-cyclopentyl-5-[(5,7-dimethyl[1,2,4]triazolo[1,5-a]pyrimidin-2-yl)oxy]-4,6-dioxotetrahydro-2H-pyran-2-yl}ethyl)phenyl]-2-methylpropanenitrile] | 10000 |
| CC(C)(C#N)c1ncc(CCC2(C3CCCC3)CC(=O)CC(=O)O2)cc1Cl (centres unmarked) [B(29), 2-{3-Chloro-5-[2-(2-cyclopentyl-4,6-dioxotetrahydro-2H-pyran-2-yl)ethyl]pyridin-2-yl}-2-methylpropanenitrile] | 5200 |
| Cc1cc(C)n2nc(CC3=C(O)CC(CCn4cc(Br)ccc4=O)(C4CCCC4)OC3=O)nc2n1 (centres unmarked) [B(30), 5-Bromo-1-(2-{2-cyclopentyl-5-[(5,7-dimethyl[1,2,4]triazolo[1,5-a]pyrimidin-2-yl)methyl]-4-hydroxy-6-oxo-3,6-dihydro-2H-pyran-2-yl}ethyl)pyridin-2(1H)-one] | 1200 |
| CCc1ccc(=O)n(CCC2(C3CCCC3)CC(O)=C(Cc3nc4nc(C)cc(C)n4n3)C(=O)O2)c1 (centres unmarked) [B(31), 1-(2-{2-Cyclopentyl-5-[(5,7-dimethyl[1,2,4]triazolo[1,5-a]pyrimidin-2-yl)methyl]-4-hydroxy-6-oxo-3,6-dihydro-2H-pyran-2-yl}ethyl)-5-ethylpyridin-2(1H)-one] | 180 |
| Cc1cc(C)n2nc(CC3=C(O)CC(CCc4ccc(C(C)(C)O)c(C)c4)(C4CCCC4)OC3=O)nc2n1 (centres unmarked) [B(32), 6-Cyclopentyl-3-[(5,7-dimethyl[1,2,4]triazolo[1,5-a]pyrimidin-2-yl)methyl]-4-hydroxy-6-{2-[4-(1-hydroxy-1-methylethyl)-3-methylphenyl]ethyl}-5,6-dihydro-2H-pyran-2-one] | 91 |
| CCc1cc(CCC2(C3CCCC3)CC(=O)CC(=O)O2)ccc1CO (centres unmarked) [B(34), 6-Cyclopentyl-6-{2-[3-ethyl-4-(hydroxymethyl)phenyl]ethyl}dihydro-2H-pyran-2,4(3H)-dione] | 1300 |
| CC(C)(O)c1ccc(CCC2(C3CCCC3)CC(O)=C(Cc3nc4ncccn4n3)C(=O)O2)cc1Cl (centres unmarked) [B(35), 6-{2-[3-Chloro-4-(1-hydroxy-1-methylethyl)phenyl]ethyl}-6-cyclopentyl-4-hydroxy-3-([1,2,4]triazolo[1,5-a]pyrimidin-2-ylmethyl)-5,6-dihydro-2H-pyran-2-one] | 10 |
| Cc1cnc2nc(CC3=C(O)CC(CCc4ccc(C(C)(C)O)c(Cl)c4)(C4CCCC4)OC3=O)nn2c1 (centres unmarked) [B(36), 6-{2-[3-Chloro-4-(1-hydroxy-1-methylethyl)phenyl]ethyl}-6-cyclopentyl-4-hydroxy-3-[(6-methyl[1,2,4]triazolo[1,5-a]pyrimidin-2-yl)methyl]-5,6-dihydro-2H-pyran-2-one] | 19 |
| Cc1cc(C)n2nc(CC3=C(O)CC(CCc4ccc(C(C)(C)O)c(Cl)c4)(C4CCCC4)OC3=O)nc2n1 (centres unmarked) [B(37), 6-{2-[3-Chloro-4-(1-hydroxy-1-methylethyl)phenyl]ethyl}-6-cyclopentyl-3[(5,7-dimethyl[1,2,4]triazolo[1,5-a]pyrimidin-2-yl)methyl]-4-hydroxy-5,6-dihydro-2H-pyran-2-one] | 22 |
| CC(C)(O)c1ccc(CCC2(C3CCCC3)CC(O)=C(Cc3nc4ncc(Cl)cn4n3)C(=O)O2)cc1Cl (centres unmarked) [B(38), 6-{2-[3-Chloro-4-(1-hydroxy-1-methylethyl)phenyl]ethyl}-3-[(6-chloro[1,2,4]triazolo[1,5-a]pyrimidin-2-yl)methyl]-6-cyclopentyl-4-hydroxy-5,6-dihydro-2H-pyran-2-one] | 67 |
| CCn1nc(CC2=C(O)CC(CCc3ccc(C(C)(C)C#N)c(F)c3)(C3CCCC3)OC2=O)nc1C (centres unmarked) [Example B(50), 2-[4-(2-{2-Cyclopentyl-5-[(1-ethyl-5-methyl-1H-1,2,4-triazol-3-yl)methyl]-4-hydroxy-6-oxo-3,6dihydro-2H-pyran-2-yl}ethyl)-2-fluorophenyl]-2-methylpropanenitrile] | 43 |
| CN(C)c1c(CC2=C(O)CC(CCc3ccc(C(C)(C)C#N)c(F)c3)(C3CCCC3)OC2=O)c(C(F)F)nn1C (centres unmarked) [Example B(51), 2-{4-[2-(2-Cyclopentyl-5-{[3-(difluoromethyl)-5-(dimethylamino)-1-methyl-1H-pyrazol-4-yl]methyl}-4-hydroxy-6-oxo-3,6-dihydro-2H-pyran-2-yl)ethyl]-2-fluorophenyl}-2-methylpropanenitrile] | 24 |
